Measured values from ChEMBL document CHEMBL1201862, “PubChem BioAssay data set” (2004).
Activity calls are given as the source filed them. Unless noted, no cut-off for these calls is given here.

Experiments:
[1] = molecular target: Potassium voltage-gated channel subfamily KQT member 2 (Rattus norvegicus, UniProt O88943); test: Mode of action assay-Dose response assay for compounds that activate KCNQ2 potassium channels on automated patch clamp. [Related pubchem assays (depositor defined):AID2239, AID2258, AID2287, AID493113]; assay type: functional
Potassium voltage-gated channel subfamily KQT member 2, sequence (O88943 whole entry): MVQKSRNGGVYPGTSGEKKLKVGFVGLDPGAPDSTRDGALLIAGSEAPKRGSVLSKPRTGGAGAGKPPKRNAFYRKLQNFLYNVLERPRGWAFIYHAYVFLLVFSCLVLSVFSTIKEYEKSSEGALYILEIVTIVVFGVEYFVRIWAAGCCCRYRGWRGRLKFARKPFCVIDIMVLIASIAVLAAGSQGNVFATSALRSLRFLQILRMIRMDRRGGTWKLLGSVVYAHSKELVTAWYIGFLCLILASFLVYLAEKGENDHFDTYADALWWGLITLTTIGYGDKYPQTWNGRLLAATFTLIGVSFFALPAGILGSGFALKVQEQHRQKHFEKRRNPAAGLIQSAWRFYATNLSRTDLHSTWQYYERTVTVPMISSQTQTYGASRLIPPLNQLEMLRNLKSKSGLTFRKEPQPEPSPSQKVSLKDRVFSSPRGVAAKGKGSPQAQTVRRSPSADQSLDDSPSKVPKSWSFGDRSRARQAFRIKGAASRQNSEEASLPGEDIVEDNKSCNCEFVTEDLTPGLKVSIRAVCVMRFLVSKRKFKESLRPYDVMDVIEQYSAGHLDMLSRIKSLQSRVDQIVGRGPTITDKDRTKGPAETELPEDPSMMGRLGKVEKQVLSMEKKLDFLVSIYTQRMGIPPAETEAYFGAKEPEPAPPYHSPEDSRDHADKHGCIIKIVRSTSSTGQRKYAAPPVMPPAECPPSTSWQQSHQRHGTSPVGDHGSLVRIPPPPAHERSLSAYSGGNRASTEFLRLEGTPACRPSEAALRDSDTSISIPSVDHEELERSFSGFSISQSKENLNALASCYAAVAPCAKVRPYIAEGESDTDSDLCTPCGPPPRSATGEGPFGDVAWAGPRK

[2] = molecular target: T1, Potassium voltage-gated channel subfamily KQT member 4 (Homo sapiens, UniProt P56696); test: activation of KCNQ4 potassium current – automated patch clamp, CHO cells, selectivity assay for KCNQ2 activator project, dose response (AID 493043); assay type: functional, cell-based
T1 sequence (P56696 whole entry): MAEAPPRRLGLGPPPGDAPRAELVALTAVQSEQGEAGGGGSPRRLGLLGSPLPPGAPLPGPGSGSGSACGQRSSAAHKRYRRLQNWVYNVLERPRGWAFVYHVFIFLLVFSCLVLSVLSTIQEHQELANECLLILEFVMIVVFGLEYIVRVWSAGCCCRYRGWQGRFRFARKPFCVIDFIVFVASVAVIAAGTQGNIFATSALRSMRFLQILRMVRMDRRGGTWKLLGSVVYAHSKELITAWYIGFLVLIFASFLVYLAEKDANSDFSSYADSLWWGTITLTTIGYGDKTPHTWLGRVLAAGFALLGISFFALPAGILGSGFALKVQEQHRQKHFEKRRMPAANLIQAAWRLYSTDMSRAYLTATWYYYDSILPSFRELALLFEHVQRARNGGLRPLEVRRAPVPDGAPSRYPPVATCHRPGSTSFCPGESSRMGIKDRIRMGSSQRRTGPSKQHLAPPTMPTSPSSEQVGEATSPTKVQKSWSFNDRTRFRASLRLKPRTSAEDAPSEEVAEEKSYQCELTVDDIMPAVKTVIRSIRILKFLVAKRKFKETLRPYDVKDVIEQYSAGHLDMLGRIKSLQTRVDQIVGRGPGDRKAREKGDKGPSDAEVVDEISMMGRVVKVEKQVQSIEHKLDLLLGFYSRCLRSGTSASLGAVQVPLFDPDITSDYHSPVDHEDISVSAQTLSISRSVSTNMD

[3] = molecular target: Potassium voltage-gated channel subfamily KQT member 2/member 3 (Rattus norvegicus, UniProt O88943+O88944); test: Mode of action assay-Dose response assay for KCNQ2 activators in the KCNQ2/KCNQ3 co-expressing cells on automated patch clamp. [Related pubchem assays (depositor defined):AID2239, AID2258, AID2287]; assay type: functional
Potassium voltage-gated channel subfamily KQT member 2/member 3, sequence (O88943 whole entry): as the sequence (O88943 whole entry) above
Potassium voltage-gated channel subfamily KQT member 2/member 3, sequence (O88944 whole entry): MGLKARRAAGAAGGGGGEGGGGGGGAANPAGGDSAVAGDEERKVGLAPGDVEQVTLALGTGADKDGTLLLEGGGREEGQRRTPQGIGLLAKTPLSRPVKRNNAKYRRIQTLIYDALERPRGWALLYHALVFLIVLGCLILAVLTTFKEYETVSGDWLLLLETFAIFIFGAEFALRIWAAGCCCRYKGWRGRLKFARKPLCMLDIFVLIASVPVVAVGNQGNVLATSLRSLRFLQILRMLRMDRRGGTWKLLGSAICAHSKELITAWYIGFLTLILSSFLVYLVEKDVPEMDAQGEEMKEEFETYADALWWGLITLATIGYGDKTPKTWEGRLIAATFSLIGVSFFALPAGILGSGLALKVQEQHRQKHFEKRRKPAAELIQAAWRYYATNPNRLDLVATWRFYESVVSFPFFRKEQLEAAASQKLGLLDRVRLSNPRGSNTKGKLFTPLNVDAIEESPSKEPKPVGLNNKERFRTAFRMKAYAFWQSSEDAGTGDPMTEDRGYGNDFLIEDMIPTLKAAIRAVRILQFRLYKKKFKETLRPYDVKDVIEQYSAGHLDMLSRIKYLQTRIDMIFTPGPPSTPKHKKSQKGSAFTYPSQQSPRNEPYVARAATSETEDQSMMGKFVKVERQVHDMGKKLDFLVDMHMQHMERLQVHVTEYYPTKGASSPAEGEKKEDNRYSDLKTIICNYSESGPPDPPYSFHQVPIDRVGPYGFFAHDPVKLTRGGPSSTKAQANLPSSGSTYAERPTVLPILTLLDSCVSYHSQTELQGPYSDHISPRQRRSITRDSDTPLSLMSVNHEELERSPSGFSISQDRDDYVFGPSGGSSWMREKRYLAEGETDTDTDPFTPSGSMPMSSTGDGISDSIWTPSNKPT

[4] = molecular target: T1, Potassium voltage-gated channel subfamily KQT member 4; test: KCNQ4 thallium flux concentration-response – KCNQ4-expressing cells, selectivity assay for KCNQ2 activator project, dose response (AID 504416); assay type: functional, cell-based
H9c2 = test: cells; assay type: functional, cell-based; details: Rattus norvegicus, H9c2, Myocardium;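 note: confirmatory concentration-response retest of ultra-high-throughput screening hits for modulation of myocardial damage; cell death induced by hydrogen peroxide oxidative stress; compound pretreatment for 60 min then peroxide exposure for 2 h; potency is for protecting the cells against peroxide damage rather than for killing them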
[5] = molecular target: Beta-2 adrenergic receptor (Homo sapiens, UniProt P07550); test: ADRB2 activation measured by internalization – cell-based, FAP fluorogen, flow cytometry, cherry pick 1, dose response (AID 588763); assay type: functional
Beta-2 adrenergic receptor, sequence (P07550 whole entry): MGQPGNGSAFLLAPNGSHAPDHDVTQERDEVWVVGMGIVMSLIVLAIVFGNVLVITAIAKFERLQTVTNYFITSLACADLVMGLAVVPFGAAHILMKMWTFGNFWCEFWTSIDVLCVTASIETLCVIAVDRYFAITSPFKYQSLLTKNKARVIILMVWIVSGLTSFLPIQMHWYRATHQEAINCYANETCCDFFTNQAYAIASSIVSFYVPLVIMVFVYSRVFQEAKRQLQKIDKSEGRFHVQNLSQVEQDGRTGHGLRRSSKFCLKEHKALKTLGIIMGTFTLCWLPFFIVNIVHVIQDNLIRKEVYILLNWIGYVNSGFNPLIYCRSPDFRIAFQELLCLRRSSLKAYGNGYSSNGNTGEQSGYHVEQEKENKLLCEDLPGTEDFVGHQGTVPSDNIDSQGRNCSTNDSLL

EC50 [1]	EC50 [2]	EC50 [3]	EC50 [4]	Compound	IC50 (H9c2)	EC50 [5]
0.867 µM (active)	15.3 µM (active)	0.625 µM (active)	8.78 µM (active)	Cc1cc(C)c(NC(=O)CC(C)(C)C)c(Cl)c1		
				CC(=O)Nc1ccc(S(=O)(=O)N(Cc2ccco2)Cc2cc3ccccc3nc2O)cc1	> 79 µM (inactive)	0.00464 µM (active)
